Publication PMC12441834, “Highly Potent and Subtype-Selective Sperm-Specific Potassium Channel SLO3 Inhibitors Display High Tissue Exposure in the Murine Female Reproductive Tract” (ACS Pharmacology & Translational Science, 2025)

Biological target: T1, human SLO3 (Homo sapiens, UniProt A8MYU2)
T1 construct: expressed in transfected cells
T1 sequence (A8MYU2 1-1149): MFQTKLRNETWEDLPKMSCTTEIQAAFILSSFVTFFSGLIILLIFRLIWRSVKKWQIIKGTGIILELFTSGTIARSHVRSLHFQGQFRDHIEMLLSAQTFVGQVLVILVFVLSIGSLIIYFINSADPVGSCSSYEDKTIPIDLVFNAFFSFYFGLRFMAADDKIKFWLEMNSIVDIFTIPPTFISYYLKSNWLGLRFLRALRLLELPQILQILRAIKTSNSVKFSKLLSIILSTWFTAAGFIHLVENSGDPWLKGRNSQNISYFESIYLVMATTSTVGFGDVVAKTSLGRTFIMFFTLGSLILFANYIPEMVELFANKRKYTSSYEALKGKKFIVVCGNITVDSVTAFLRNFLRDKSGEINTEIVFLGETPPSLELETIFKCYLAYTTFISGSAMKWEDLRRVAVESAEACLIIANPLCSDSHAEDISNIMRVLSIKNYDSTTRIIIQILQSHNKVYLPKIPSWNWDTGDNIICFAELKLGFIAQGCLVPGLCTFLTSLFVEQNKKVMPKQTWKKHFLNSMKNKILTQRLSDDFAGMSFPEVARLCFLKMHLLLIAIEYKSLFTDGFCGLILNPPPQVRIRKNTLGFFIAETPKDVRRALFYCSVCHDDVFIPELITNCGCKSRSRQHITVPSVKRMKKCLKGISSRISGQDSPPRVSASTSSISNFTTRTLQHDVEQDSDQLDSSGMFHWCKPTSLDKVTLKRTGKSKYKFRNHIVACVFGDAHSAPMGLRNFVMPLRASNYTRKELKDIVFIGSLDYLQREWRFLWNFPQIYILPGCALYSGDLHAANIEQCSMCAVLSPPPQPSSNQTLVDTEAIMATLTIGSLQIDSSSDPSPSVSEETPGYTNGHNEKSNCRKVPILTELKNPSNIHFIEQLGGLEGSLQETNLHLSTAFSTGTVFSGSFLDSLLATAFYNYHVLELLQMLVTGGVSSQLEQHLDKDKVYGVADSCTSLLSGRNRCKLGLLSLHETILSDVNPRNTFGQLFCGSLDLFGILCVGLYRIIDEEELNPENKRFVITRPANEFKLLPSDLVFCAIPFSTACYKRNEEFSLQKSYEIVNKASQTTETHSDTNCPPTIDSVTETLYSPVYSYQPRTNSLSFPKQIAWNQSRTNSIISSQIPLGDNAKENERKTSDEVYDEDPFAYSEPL
T1 sequence (Q8N7C0 24-313 partner): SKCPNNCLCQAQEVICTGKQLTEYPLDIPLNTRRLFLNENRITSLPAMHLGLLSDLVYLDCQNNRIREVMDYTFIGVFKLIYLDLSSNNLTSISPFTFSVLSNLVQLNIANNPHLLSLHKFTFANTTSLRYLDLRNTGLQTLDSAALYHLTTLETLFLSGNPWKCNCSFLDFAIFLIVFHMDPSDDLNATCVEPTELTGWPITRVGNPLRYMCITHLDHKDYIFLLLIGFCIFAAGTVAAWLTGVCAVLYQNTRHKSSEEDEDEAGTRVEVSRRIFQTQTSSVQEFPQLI
Experiment: SLO3 patch-clamp electrophysiology, human SLO3-γ2 expressed in HEK293 cells
Assay type: cell-based
Conditions: for inhibition at 10 µM: HEK293, read-out: HEK hSLO3 % of inhib. at 10 μM; for IC50: transfected HEK293 cells (human SLO3-γ2), whole-cell patch clamp, currents at +100 mV, read-out: hSLO3 IC50
Protocol: HEK293 cells were transfected with the bicistronic vector pBUD-CE4.1 containing the genes of interest and a gene conferring antibiotic resistance. Cells were exposed to gradients of selection antibiotics, and optimal growth conditions for the stable lines were as follows: SLO3 and γ2 (SLO3-γ2) supplemented with 700 μg/mL Zeocin (Invitrogen); human SLO1 and β1 (SLO1-β1) with 1 mg/mL G418 (Sigma) and 3 μg/mL puromycin (Corning, Thermo Fisher); and human SLO1 and β4 (SLO1-β4) with 250 μg/mL Zeocin and 3 μg/mL puromycin. All cell lines were grown in Dulbecco’s Modified Eagle Medium (Gibco, Thermo Fisher) supplemented with 10% fetal bovine serum, 1% penicillin–streptomycin (Millipore Sigma), and selection antibiotics. To generate cells expressing SLO1 and γ2, stable SLO1-expressing HEK293 cells were transiently transfected with expression vectors for γ2 and green fluorescent protein (GFP) in the presence of lipofectamine (Invitrogen) for 5 h.
The cells were then washed and incubated in supplemented Dulbecco’s Modified Eagle Medium for 48 h before use. Patch-clamp electrophysiology was performed only on cells expressing GFP.
Currents in HEK293 cells were measured in the whole-cell patch-clamp configuration with an Axopatch 200B amplifier, digitized with a Digidata 1440A, and interfaced with Clampex 10.6.0.13 (Molecular Devices). […] An isolated cell was located on an Axiovert 200 microscope (Zeiss), and a gigaohm seal was formed with a borosilicate pipette with resistance between 3 and 6 MΩ and filled with internal solution (140 mM KMeSO3, 10 mM HEPES, 10 mM MES, 1 mM EGTA, pH 7). The seal was then broken by applying a negative pressure. Cells were kept at a holding potential of −60 mV for 50 ms, tested with a stepped voltage protocol from −80 to +150 mV in 10 mV increments for 100 ms, and then dropped to −40 mV for 50 ms with 2.5 s between sweeps. This protocol was used to record currents present with increasing concentration of our compound of interest or 3 μL/mL vehicle (DMSO) in the bath solution. Individual cells were tested with between 1 and 5 concentrations of the compound of interest or until the patch was lost. Currents were allowed to stabilize before the initial recording and after the perfusion solution was changed before recording.
Data were analyzed with a pClamp 10.6 (Molecular Devices). VU6047606 and VU6032735 inhibition dose–response relationships were fit by the Hill equation in OriginPro 7.5 (OriginLab Corporation): R=1/1+(C/IC50)^n+Ioff , in which R is fractional unblock, C is compound concentration, IC50 is the half inhibition concentration, n is the Hill coefficient, and I off is an offset item for leak current. Error bars in the figures represent the SDs. Each data point is averaged from at least 5 measurements. Curve-fitting results are reported as the fitted values with standard error, which was estimated by OriginPro according to the Error Propagation formula.

Row | IC50 [nM] | Structure (SMILES) | inhibition at 10 µM [%]
1 | 135 | Cc1cc(Cl)cc2sc(OC3CCN(C(=O)CCCS(=O)(=O)c4cccc(Br)c4)CC3F)nc12 (centres unmarked) [VU6045330] | –
2 | 583 | Cc1cc(Cl)cc2sc(O[C@@H]3CCN(C(=O)CCCS(=O)(=O)c4cccc(Br)c4)C[C@@H]3F)nc12 [VU6047608] | –
3 | 112 | Cc1cc(Cl)cc2sc(O[C@H]3CCN(C(=O)CCCS(=O)(=O)c4cccc(Br)c4)C[C@@H]3F)nc12 [VU6047609] | –
4 | 457 | Cc1cc(Cl)cc2sc(O[C@@H]3CCN(C(=O)CCCS(=O)(=O)c4cccc(Br)c4)C[C@H]3F)nc12 [VU6047607] | –

Row | Structure (SMILES) | IC50 [nM] | inhibition at 10 µM [%]
5 | Cc1cc(Cl)cc2sc(O[C@H]3CCN(C(=O)CCCS(=O)(=O)c4cccc(Br)c4)C[C@H]3F)nc12 [VU6047606] | 43 | 100
6 | O=C(c1ccc(OCc2ccc(OC(F)(F)F)cc2)cc1)N1CCN(c2ccc(C(F)(F)F)cn2)CC1 [VU6032735] | 165 | 100
